Measurements published in patent publication US20160317473A1, “METHODS OF TREATING OR PREVENTING BRAIN DAMAGE DUE TO HYPOXIC-ISCHEMIA” (EMORY UNIVERSITY, priority 2014, published 2016).
“Also recorded” adds a separate entry of the source.

How the values were obtained:
[1] = tested on: microglia and monocytes in CX3CR1-GFP; CCR2-RFP mice; assay: ICV injection of LPS in P10 CX3CR1-GFP; CCR2-RFP mice; format: in vivo; conditions: 24 h after ICV LPS 1 μg; FTY720 1 μg/g
Method: In untouched mice, few GFP+ microglial processes extended into the pyramidal cell layer in the hippocampal (CA), and almost no RFP+ monocytes were detected in the brain.
(§1) Experiments herein indicate FTY720 primarily blocks brain influx of leukocytes to prevent LPS/HI-induced neuroinflammation. […] To distinguish between these two scenarios, the effects of FTY720 was tested on the MCP1 induction following cerebral ventricle-injection of LPS, a paradigm of direct microglial activation. […] Intracerebroventricular (ICV) injection of LPS was performed in bitransgenic CX3CR1-GFP; CCR2-RFP mice, in which the microglia and circulating monocytes are marked by the green and red fluorescence protein, respectively. In unchallenged mice, the brains were largely devoid of monocytes and the microglial processes were excluded from the hippocampal pyramidal cell layer.

[2] = tested on: microglial activation in P7 rats; assay: intracerebroventricular (ICV) injection of LPS in P7 rats, model of direct microglial activation; format: in vivo, rat; conditions: FTY720 1 μg/g IP; LPS 2 μg ICV
Method: as §1

[3] = tested on: pure-HI injured rat pups; assay: pure-HI (90 min) brain injury in rat pups; format: in vivo
Method: (§2) Flow cytometry we used to compare the percentage of CD4+ IL-17A+T-cells at 24 h after LPS, HI (90 min), or LPS+80 min HI brain injury. A longer duration of pure-HI insult was chosen because 80-min HI produced milder brain damage and little neuroinflammation. The TH17/IL-17 activity was compared under pure-HI (90 min) and LPS/HI (80 min) insults that produce similar levels of brain injury. […] The dual LPS/HI insult led to a significant increase to 21% of CD4+ IL-17A+ T-cells, which was reduced to 12% by FTY720 treatment (FIG. 3A).
(§3) Whether (p)FTY720 exerts direct neuroprotection was investigated. The effects of FTY720 on pure-HI (90 min) and LPS-sensitized HI insult (80 min) were compared reasoning that FTY720 should oppose both insults if its benefits are derived primarily from neuronal protection. Of note, because 80 min pure-HI insult caused little brain damage, a longer duration of pure-HI (90 min) we used in this experiment.

[4] = tested on: LPS/HI-injured P7 rat pups; assay: LPS-sensitized HI (LPS/HI) brain injury model in P7 rats; format: in vivo
Method: To test whether intrauterine infection accelerates the development of TH17 lymphocytes, the expression of IL-23 receptor (IL-23R) mRNA, a marker of TH17 cells, was compared in aliquots of cord blood mononuclear cells isolated from late preterm neonates (32-36 gestational weeks) with and without histological chorioamnionitis. […] A well-characterized LPS-sensitized HI brain injury model in P7 rats was used to compare the effects of low-dose LPS (0.3 mg/kg, IP), HI, and combined LPS/HI on the expression of IL-23R mRNA in the peripheral blood mononuclear cells.
The effects of FTY720 administration (1 μg/g, IP) after LPS/HI insult in P7 rat pups were examined.
as §2, §3
Magnetic resonance imaging (MRI) and behavioral testing were used to assess both acute and long-term effects of FTY720 treatment in LPS/HI injury. […] Two weeks later, the TBSS-identified at-risk gray and white matter became atrophic or distorted in saline-treated rat pups.

[5] = tested on: SM826 microglial cells; assay: LPS-induced activation of immortalized microglia SM826 cells; format: cell-based
Source text: These in-vivo and in-vitro results argued against direct inhibition of microglia by FTY720, which prompted us to examine the expression of S1P receptor isoforms in neonatal rat microglia. […] Thus, the effects of pFTY720 and S1P on LPS-induced expression of IL-23 (a key factor for TH17 cell differentiation), TNFα (Tumor Necrosis Factor-alpha), and iNOS mRNA were compared. […] Finally, the effects of S1P and Tat-NBD, an anti-NFKB peptide, were compared on the intracellular signaling responses to LPS in immortalized microglial cells.

[6] = tested on: LPS/HI-injured P10 mice; assay: LPS/HI injury in P10 mice; format: in vivo; conditions: two doses of 25 mg/kg, 16 h pre- & 1 h post-LPS/HI
Method: An experiment was performed to test the effects of SR1001, a small-molecule inhibitor of RORc, in LPS/HI injury in P10 mice.

[7] = biological target: S1PR2 (Homo sapiens, UniProt O95136); conditions: Mandala et al., 2002; cited from earlier work
Sequence of S1PR2 (O95136 whole entry, species assumed): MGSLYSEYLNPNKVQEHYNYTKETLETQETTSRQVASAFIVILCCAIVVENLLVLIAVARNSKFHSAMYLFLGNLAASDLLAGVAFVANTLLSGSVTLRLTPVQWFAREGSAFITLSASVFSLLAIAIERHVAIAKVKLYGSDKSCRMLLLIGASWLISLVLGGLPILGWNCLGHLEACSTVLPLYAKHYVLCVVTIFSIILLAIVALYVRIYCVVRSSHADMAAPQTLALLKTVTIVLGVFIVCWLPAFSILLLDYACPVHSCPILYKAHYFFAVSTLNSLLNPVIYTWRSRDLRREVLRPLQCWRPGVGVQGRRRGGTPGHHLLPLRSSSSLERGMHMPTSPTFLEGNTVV

CCCCCCCCc1ccc(CCC(N)(CO)CO)cc1 [FTY720, 2-amino-2-[2-(4-octylphenyl)ethyl]propane-1,3-diol]
microglial processes in hippocampal pyramidal cell layer and monocytes in the brain [1]: showed intrusion of hypertrophic microglia processes in the hippocampal pyramidal cell layer and a massive influx of monocytes; also recorded: hypertrophic microglial processes extended into the pyramidal cell layer and a large number of monocytes were found in the brain | induction of MCP1 after ICV injection of LPS [2]: unable to prevent | HI-induced MMP9 activation in ipsilateral cortical hemisphere (zymogram) ([3]; 24 h recovery, pure-HI): failed to prevent | brain atrophy / injury after pure-HI ([3]; pure-HI 90 min, acute FTY720 treatment): failed to prevent; also recorded: ineffective | worsening of pure-HI brain injury ([3]; rat, in vivo): does not impair neonatal development or worsen pure-HI brain injury | LPS/HI-induced MCP1 expression in the brain (ELISA) ([4]; 18-24 h following LPS/HI): markedly reduced; also recorded: significant attenuation | LPS/HI-induced MCP1 in the plasma (ELISA) ([4]; 18-24 h following LPS/HI): failed to prevent | post-LPS/HI induction of TSPO mRNA (marker for activated microglia) ([4]; 18-24 h following LPS/HI): markedly reduced | ribbon-like CD43 immunoreactivity in the ipsilateral choroid plexus ([4]; 4 h after LPS/HI): preserved; also recorded: less pronounced | IL-23R mRNA levels in peripheral blood mononuclear cells (normalized to actin) ([4]; 4 h after LPS/HI, FTY720 1 μg/g IP): blocked the increase | influx of CD43+ leukocytes in choroid plexus / ipsilateral subcortical white matter ([4]; 4 h post-LPS/HI): mitigated the influx; also recorded: absence of CD43+ cells; also recorded: not in the contralateral hemisphere or after the FTY720 treatment | nuclear NF-κB activity (EMSA, brain nuclear extract) ([4]; 4 h recovery from LPS/HI): greatly reduced; also recorded: prevented the high-order DNA-protein complex | reduction/degradation of cytoplasmic IκBα in the ipsilateral hemisphere ([4]; 4 h recovery from LPS/HI): greatly reduced; also recorded: averted | BBB permeability (NaF fluorescence / extravasation) ([4]; 24 h after LPS/HI): markedly attenuated; also recorded: significantly reduced | MMP9 induction/activity in ipsilateral hemisphere (zymogram) ([4]; 24 h after LPS/HI): diminished; also recorded: absence of MMP9 induction | ADC (apparent diffusion coefficient) signals in the cerebral cortex (MRI) ([4]; 24 h after LPS/HI, vs saline): mitigated; also recorded: significant preservation | increase of brain MCP1 protein (cytokine array) ([4]; 24 h after LPS/HI, 9.7-fold without treatment): 3 fold | brain cytoarchitectural distinctions in the ipsilateral hemisphere (MEMRI) ([4]; 24 h post-LPS/HI): preserved | increased sodium concentration in the ipsilateral hemisphere (sodium MRI) ([4]; 24 h recovery): mitigated | CD43+ leukocytes in the cortical gray matter ([4]; 24 h recovery after LPS/HI): absent | accumulation of CD43+ leukocytes in the leptomeningeal space ([4]; 24 h recovery after LPS/HI): prevented the accumulation | latency to fall on rotarods ([4]; 24 days of age after LPS/HI): near-normal | brain atrophy ([4]; LPS/HI injury): dose-dependent reduction | LPS/HI-induced brain Gata3 mRNA ([4]; RT-PCR): not | LPS/HI-induced brain IL-13 mRNA ([4]; RT-PCR): not | LPS/HI-induced brain IL-17A mRNA ([4]; RT-PCR): significantly decreased | LPS/HI-induced brain IL-23 receptor mRNA ([4]; RT-PCR): significantly decreased | LPS/HI-induced brain RORc mRNA ([4]; RT-PCR): significantly decreased | LPS/HI-induced brain Tbx21/T-bet mRNA ([4]; RT-PCR): significantly attenuated; also recorded: significantly decreased | gain in body weight ([4]; by 24 days of age after LPS/HI): near-normal gain | impairment of neonatal development ([4]; rat, in vivo): does not impair neonatal development | LPS/HI-induced tissue loss salvaged in the hippocampus and the cerebral cortex ([4]; treatment started within 30 min after injury): > 90%

CCCCCCCCCCCCC/C=C/[C@@H](O)[C@@H](N)COP(=O)(O)O [S1P, sphingosine-1-phosphate]
LPS-induced IL-23 mRNA [5]: neither phospho-FTY720 nor sphingosine-1-phosphate (S1P) prevented | LPS-induced IκBα degradation in the cytosol (immunoblot) ([5]; 5, 20 μM, LPS 5 ng/ml, 30 min): no opposing effects; also recorded: lacked this effect | LPS-induced nuclear accumulation of NFκB/RelA (immunoblot) ([5]; 5, 20 μM, LPS 5 ng/ml, 30 min): no opposing effects; also recorded: lacked this effect | S1PR1 mRNA ([5]; negative feedback of the signaling pathway): dose-dependent reduction | microglial activation: LPS-induced expression of IL-23, TNFα and iNOS mRNA ([5]; up to 10 μM): neither pFTY720 nor S1P (up to 10 μM) suppressed

CC(=O)Nc1nc(C)c(S(=O)(=O)Nc2ccc(C(O)(C(F)(F)F)C(F)(F)F)cc2)s1 [SR1001, N-(5-(N-(4-(1,1,1,3,3,3-hexafluoro-2-hydroxypropan-2-yl)phenyl)sulphamoyl)-4-methylthiazol-2-yl)acetamide]
brain atrophy (tissue loss) [6]: significantly reduced | induction of TH17 cells [6]: significantly reduced | microglial activation/TSPO marker [6]: significantly reduced

CCCCCCCCc1ccc(CCC(N)(CO)COP(=O)(O)O)cc1 (centres unmarked) [phospho-FTY720]
binding affinity to the S1PR2 isoform [7]: lacks binding affinity | LPS-induced IL-23 mRNA [5]: neither phospho-FTY720 nor sphingosine-1-phosphate (S1P) prevented | LPS-induced COX2 expression ([5]; 2-10 μM, LPS 5 ng/ml): failed to prevent | LPS-induced iNOS expression ([5]; 2-10 μM, LPS 5 ng/ml): failed to prevent | microglial activation: LPS-induced expression of IL-23, TNFα and iNOS mRNA ([5]; up to 10 μM): neither pFTY720 nor S1P (up to 10 μM) suppressed | LPS-mediated induction of IL-1β ([5]; up to 10 μM, LPS 5 ng/ml): failed to attenuate | LPS-mediated induction of IL-6 ([5]; up to 10 μM, LPS 5 ng/ml): failed to attenuate
